US12509454B2, “Thiadiazolyl derivatives” (IDEAYA Biosciences, Inc., priority 2019, dated 2025)

Target: Pol theta (1-899) (Homo sapiens (Human), UniProt O75417)
Assay: Pol theta ATPase activity, NADH oxidation-coupled enzymatic assay
Type: biochemical
Settings: Pol theta (1-899) 10 nM, ATP, dT50 ssDNA, absorbance 340 nm, 10-point dilution series; read-out: ATPase NADH coupling:Standard Screening:hPolQ IC50
Procedure: The ability of the compounds of Formula (I) to inhibit ATPase activity of Pol theta (1-899) was determined using the assay described below.
Pol Theta ATPase activity was determined by measuring the rate of ATP turn over in a NADH oxidation-coupled enzymatic assay. 10-point dilution series of compounds were used in a 384 well format for the inhibition assays. Pol theta (1-899) (10 nM) in assay buffer (20 mM Tris HCl (pH 7.80), 80 mM KCl, 10 mM MgCl2, 1 mM DTT, 0.01% BSA, 0.01% Tween, 5% glycerol) was transferred to the test wells (20 μL), except the low control wells (20 μL of assay buffer was added to the low control wells). The plate was then incubated at room temperature for 15 min. An equal volume (20 μL) of 100 μM ATP, 300 nM dT50 (single-stranded DNA (ssDNA) containing 50 thymine bases), 300 μM NADH, 6 mM PEP, 10 U/mL lactate dehydrogenase and 20 U/mL pyruvate kinase in assay buffer was added to all the test wells. The plate was then centrifuged at 1000 rpm for 1 min. The reaction was monitored for 30 min by measuring absorbance (λ=340 nm) in a Tecan Spark multimode plate reader every minute. The high control (DMSO with enzyme) with low absorbance intensity represents no inhibition of ATPase reaction while the low control (DMSO with buffer) with high absorbance intensity represents full inhibition of ATPase activity. Slope of the reaction progress curves were used to calculate the rate of ATP hydrolysis. The rates were used to determine the percent inhibition using a four-parameter inhibition model to generate IC50, Hill slope and max inhibition.

Pol theta (1-899), sequence (O75417 1-899): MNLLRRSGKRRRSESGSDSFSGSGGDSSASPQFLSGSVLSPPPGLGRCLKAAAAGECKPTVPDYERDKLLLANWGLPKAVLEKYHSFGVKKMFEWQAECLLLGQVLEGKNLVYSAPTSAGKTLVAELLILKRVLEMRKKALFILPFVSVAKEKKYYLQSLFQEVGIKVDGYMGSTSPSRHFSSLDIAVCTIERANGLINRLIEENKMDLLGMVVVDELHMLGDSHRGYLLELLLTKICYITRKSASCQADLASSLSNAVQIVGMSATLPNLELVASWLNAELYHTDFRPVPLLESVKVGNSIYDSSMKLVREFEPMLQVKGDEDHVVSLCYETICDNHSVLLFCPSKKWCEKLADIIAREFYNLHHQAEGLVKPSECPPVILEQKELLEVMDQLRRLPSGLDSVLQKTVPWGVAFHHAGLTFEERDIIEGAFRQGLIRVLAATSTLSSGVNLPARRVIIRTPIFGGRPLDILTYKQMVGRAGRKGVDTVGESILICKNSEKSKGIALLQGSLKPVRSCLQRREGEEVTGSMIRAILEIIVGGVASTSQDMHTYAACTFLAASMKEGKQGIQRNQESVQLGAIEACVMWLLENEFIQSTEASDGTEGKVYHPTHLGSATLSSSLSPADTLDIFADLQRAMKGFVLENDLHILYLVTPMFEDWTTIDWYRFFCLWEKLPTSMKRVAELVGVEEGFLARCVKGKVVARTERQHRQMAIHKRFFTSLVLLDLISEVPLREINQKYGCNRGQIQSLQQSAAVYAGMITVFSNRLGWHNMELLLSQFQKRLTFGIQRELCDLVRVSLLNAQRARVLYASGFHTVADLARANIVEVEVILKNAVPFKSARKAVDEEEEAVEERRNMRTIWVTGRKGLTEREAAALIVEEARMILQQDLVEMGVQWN

Row | IC50 [nM] | SMILES
1 | ≤ 200 | COc1ccccc1-c1cnc(C#N)cc1C(=O)Nc1nnc(OCc2ccc(Cl)cc2)s1 [Example 151, N-(5-((4-chlorobenzyl)oxy)-1,3,4-thiadiazol-2-yl)-2-cyano-5-(2-methoxyphenyl)isonicotinamide]
2 | ≤ 200 | COc1cc(C(=O)Nc2nnc(OCc3ccc(Cl)cc3)s2)c(-c2ccccc2OC)cn1 [Example 160, N-(5-((4-chlorobenzyl)oxy)-1,3,4-thiadiazol-2-yl)-2-methoxy-5-(2-methoxyphenyl)isonicotinamide]
3 | ≤ 200 | COc1ccccc1-c1cc(C)ncc1C(=O)Nc1nnc(OCc2ccc(Cl)cc2)s1 [Example 138, N-[5-[(4-chlorophenyl)methoxy]-1,3,4-thiadiazol-2-yl]-4-(2-methoxyphenyl)-6-methylpyridine-3-carboxamide]
4 | ≤ 200 | O=C(Nc1nnc(OCc2ccc(Cl)cc2)s1)c1ccncc1-c1cccc2ncoc12 [Example 111, 3-(benzo[d]oxazol-7-yl)-N-(5-((4-chlorobenzyl)oxy)-1,3,4-thiadiazol-2-yl)isonicotinamide]
5 | 500 to 1000 | COc1cccc(OC)c1-c1ccncc1C(=O)Nc1nnc(OCc2ccc(Cl)cc2)s1 [Example 128, N-(5-((4-chlorobenzyl)oxy)-1,3,4-thiadiazol-2-yl)-4-(2,6-dimethoxyphenyl)nicotinamide]
6 | ≤ 200 | Cn1cc(-c2ccncc2C(=O)Nc2nnc(OCc3ccc(Cl)cc3)s2)ccc1=O [Example 122, N-(5-((4-chlorobenzyl)oxy)-1,3,4-thiadiazol-2-yl)-1-methyl-6-oxo-1,6-dihydro-[3,4′-bipyridine]-3′-carboxamide]
7 | ≤ 200 | COc1cccc(F)c1-c1cc(CO)ncc1C(=O)Nc1nnc(OCc2ccc(Cl)cn2)s1 [Example 206, N-[5-[(5-chloropyridin-2-yl)methoxy]-1,3,4-thiadiazol-2-yl]-4-(2-fluoro-6-methoxyphenyl)-6-(hydroxymethyl)pyridine-3-carboxamide]
8 | ≤ 200 | COc1ccccc1-c1ccncc1C(=O)Nc1nnc(OCc2ccc(Br)cc2)s1 [Example 153, N-[5-[(4-bromophenyl)methoxy]-1,3,4-thiadiazol-2-yl]-4-(2-methoxyphenyl)pyridine-3-carboxamide]
9 | ≤ 200 | O=C1COc2c(cccc2-c2cnccc2C(=O)Nc2nnc(OCc3ccc(Cl)cc3)s2)N1 [Example 120, N-(5-((4-chlorobenzyl)oxy)-1,3,4-thiadiazol-2-yl)-3-(3-oxo-3,4-dihydro-2H-benzo[b][1,4]oxazin-8-yl)isonicotinamide]
10 | ≤ 200 | COc1ccccc1-c1cnc(F)cc1C(=O)Nc1nnc(OCc2ccc(Cl)cc2)s1 [Example 148, N-(5-((4-chlorobenzyl)oxy)-1,3,4-thiadiazol-2-yl)-2-fluoro-5-(2-methoxyphenyl)isonicotinamide]
11 | 200 to 500 | COc1ccccc1-c1cnc(C)cc1C(=O)Nc1nnc(OCc2ccc(Cl)cn2)s1 [Example 191, N-[5-[(5-chloropyridin-2-yl)methoxy]-1,3,4-thiadiazol-2-yl]-5-(2-methoxyphenyl)-2-methylpyridine-4-carboxamide]
12 | ≤ 200 | COc1ccccc1-c1c(C(=O)Nc2nnc(OCc3ccc(Cl)cn3)s2)cnc(C)c1F [Example 215, N-(5-((5-chloropyridin-2-yl)methoxy)-1,3,4-thiadiazol-2-yl)-5-fluoro-4-(2-methoxyphenyl)-6-methylnicotinamide]
13 | ≤ 200 | COc1ccccc1-c1cnccc1C(=O)Nc1nnc(OCc2ccc(Cl)cn2)s1 [Example 99, N-[5-[(5-chloropyridin-2-yl)methoxy]-1,3,4-thiadiazol-2-yl]-3-(2-methoxyphenyl)pyridine-4-carboxamide]
14 | ≤ 200 | Cc1nn(C)cc1-c1cnccc1C(=O)Nc1nnc(OCc2ccc(Cl)cc2)s1 [Example 169, N-[5-[(4-chlorophenyl)methoxy]-1,3,4-thiadiazol-2-yl]-3-(1,3-dimethylpyrazol-4-yl)pyridine-4-carboxamide]
15 | ≤ 200 | COc1ccccc1-c1cc(C#N)ncc1C(=O)Nc1nnc(OCc2ccc(Cl)cn2)s1 [Example 96, N-(5-((5-chloropyridin-2-yl)methoxy)-1,3,4-thiadiazol-2-yl)-6-cyano-4-(2-methoxyphenyl)nicotinamide]
16 | 1000 to 10000 | COc1ccccc1-c1ncccc1C(=O)Nc1nnc(OCc2ccc(Cl)cc2)s1 [Example 67, N-(5-((4-chlorobenzyl)oxy)-1,3,4-thiadiazol-2-yl)-2-(2-methoxyphenyl)nicotinamide]
17 | ≤ 200 | COc1ccc(C#N)cc1-c1cc(C)ncc1C(=O)Nc1nnc(OCc2ccc(Cl)cc2)s1 [Example 116, N-[5-[(4-chlorophenyl)methoxy]-1,3,4-thiadiazol-2-yl]-4-(5-cyano-2-methoxyphenyl)-6-methylpyridine-3-carboxamide]
18 | ≤ 200 | COc1ccccc1-c1ccncc1C(=O)Nc1nnc(OCc2ccc(Cl)cc2)s1 [Example 77, N-[5-[(4-chlorophenyl)methoxy]-1,3,4-thiadiazol-2-yl]-4-(2-methoxyphenyl)pyridine-3-carboxamide]

Further lines, the molecule ahead of its results:

Row | SMILES | IC50 [nM]
19 | O=C(Nc1nnc(OCc2ccc(Cl)cc2)s1)c1cnc(-c2ncc[nH]2)cc1N1CCOCC1 [Example 98, N-(5-((4-chlorobenzyl)oxy)-1,3,4-thiadiazol-2-yl)-6-(1H-imidazol-2-yl)-4-morpholinonicotinamide] | 500 to 1000
20 | O=C(Nc1nnc(OCc2ccc(Cl)cn2)s1)c1cccnc1-c1ccccc1Cl [Example 51, 2-(2-chlorophenyl)-N-[5-[(5-chloropyridin-2-yl)methoxy]-1,3,4-thiadiazol-2-yl]pyridine-3-carboxamide] | 1000 to 10000
21 | C[C@@H]1COC[C@@H](C)N1c1cnccc1C(=O)Nc1nnc(OCc2ccc(Cl)cn2)s1 [Example 188, N-(5-((5-chloropyridin-2-yl)methoxy)-1,3,4-thiadiazol-2-yl)-3-((3R,5R)-3,5-dimethylmorpholino)isonicotinamide] | ≤ 200
22 | O=C(Nc1nnc(OCc2ccc(Cl)cn2)s1)c1cnnn1-c1ccccc1 [Example 25, N-(5-((5-chloropyridin-2-yl)methoxy)-1,3,4-thiadiazol-2-yl)-1-phenyl-1H-1,2,3-triazole-5-carboxamide] | 1000 to 10000
23 | O=C(Nc1nnc(OCc2ccc(Cl)cc2)s1)c1ccncc1[C@@]12CCOC[C@@H]1C2 (mixture of isomers) [Example 175, 3-((1R,6S)-3-oxabicyclo[4.1.0]heptan-6-yl)-N-(5-((4-chlorobenzyl)oxy)-1,3,4-thiadiazol-2-yl)isonicotinamide and 3-((1S,6R)-3-oxabicyclo[4.1.0]heptan-6-yl)-N-(5-((4-chlorobenzyl)oxy)-1,3,4-thiadiazol-2-yl)isonicotinamide] | ≤ 200
24 | N#Cc1ccc(C(=O)Nc2nnc(OCc3ccc(Br)cc3)s2)c(N2CCNC(=O)C2)n1 [Example 88, N-(5-((4-bromobenzyl)oxy)-1,3,4-thiadiazol-2-yl)-6-cyano-2-(3-oxopiperazin-1-yl)nicotinamide] | ≤ 200
25 | COc1ccccc1-c1cc(C)ncc1C(=O)Nc1nnc(OCc2ccc(F)cn2)s1 [Example 221, N-[5-[(5-fluoropyridin-2-yl)methoxy]-1,3,4-thiadiazol-2-yl]-4-(2-methoxyphenyl)-6-methylpyridine-3-carboxamide] | ≤ 200
26 | O=C(Nc1nnc(OCc2ccc(Cl)cc2)s1)c1ccncc1-c1ccccc1OC1CC(O)C1 (centres unmarked) [Example 165, N-(5-((4-chlorobenzyl)oxy)-1,3,4-thiadiazol-2-yl)-3-(2-(3-hydroxycyclobutoxy)phenyl)isonicotinamide] | ≤ 200
27 | C[C@H]1COCCN1c1ncccc1C(=O)Nc1nnc(OCc2ccc(Cl)cc2)s1 [Example 10, (S)—N-(5-((4-chlorobenzyl)oxy)-1,3,4-thiadiazol-2-yl)-2-(3-methyl-morpholino)nicotinamide] | 500 to 1000
28 | O=C(Nc1nnc(OCc2cnc(Cl)cn2)s1)c1cccnc1N1CCOCC1 [Example 19, N-[5-[(5-chloropyrazin-2-yl)methoxy]-1,3,4-thiadiazol-2-yl]-2-(morpholin-4-yl)pyridine-3-carboxamide] | 1000 to 10000
29 | CS(=O)(=O)N1CCN(c2ncccc2C(=O)Nc2nnc(OCc3ccc(Cl)cn3)s2)CC1 [Example 23, N-(5-((5-chloropyridin-2-yl)methoxy)-1,3,4-thiadiazol-2-yl)-2-(4-(methylsulfonyl)piperazin-1-yl)nicotinamide] | 1000 to 10000
30 | O=C(Nc1nnc(OCc2ccc(Cl)cc2)s1)c1cccnc1C1=CCOCC1 [Example 53, N-(5-((4-chlorobenzyl)oxy)-1,3,4-thiadiazol-2-yl)-2-(3,6-dihydro-2H-pyran-4-yl)nicotinamide] | 500 to 1000
31 | NC(=O)c1ccc(C(=O)Nc2nnc(OCc3ccc(Cl)cc3)s2)c(N2CCOCC2)n1 [Example 21, N^5-(5-((4-chlorobenzyl)oxy)-1,3,4-thiadiazol-2-yl)-6-morpholinopyridine-2,5-dicarboxamide] | 1000 to 10000
32 | COc1ccccc1-c1cc2cncn2cc1C(=O)Nc1nnc(OCc2ccc(Cl)cn2)s1 [Example 224, N-[5-[(5-chloropyridin-2-yl)methoxy]-1,3,4-thiadiazol-2-yl]-7-(2-methoxyphenyl)imidazo[1,5-a]pyridine-6-carboxamide] | ≤ 200
